Values of other authors, collected in patent publication US12414943B2 (ACASTI PHARMA U.S., INC., priority 2022, dated 2025).

How the values were obtained:
[1] = man, oral
[2] = nimodipine-treated SAH patients

half-life equivalent to earlier elimination rates [1]: 1 to 2 h
concentration in the cerebrospinal fluid [2]: ≤ 12.5 ng/mL
SMILES: COCCOC(=O)C1=C(C)NC(C)=C(C(=O)OC(C)C)C1c1cccc([N+](=O)[O-])c1 (centres unmarked) [Nimodipine, isopropyl2-methoxyethyl 1,4-dihydro-2,6-dimethyl-4-(m-nitrophenyl)-3,5-pyridinedicarboxylate]
